Results reported in ChEMBL document CHEMBL1125439, “Inhibitors of human purine nucleoside phosphorylase. Synthesis and biological activities of 8-amino-3-benzylhypoxanthine and related analogues” (J Med Chem, 1992).

How the values were obtained:
MOLT-4 = experiment: cells; conditions: Homo sapiens
[1] = molecular target: T1, Purine nucleoside phosphorylase (Homo sapiens, UniProt P00491)
T1 sequence (P00491 whole entry): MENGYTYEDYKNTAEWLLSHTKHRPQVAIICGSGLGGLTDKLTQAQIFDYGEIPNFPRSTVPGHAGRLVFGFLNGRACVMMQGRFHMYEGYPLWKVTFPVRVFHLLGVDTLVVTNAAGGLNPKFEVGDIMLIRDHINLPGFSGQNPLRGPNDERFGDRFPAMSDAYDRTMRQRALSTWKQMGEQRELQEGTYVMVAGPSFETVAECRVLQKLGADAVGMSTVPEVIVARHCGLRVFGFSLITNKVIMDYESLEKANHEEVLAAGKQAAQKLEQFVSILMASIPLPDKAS

[2] = molecular target: T2, Purine nucleoside phosphorylase (Homo sapiens) (UniProt P00491); experiment: Inhibitory activity against Purine nucleoside phosphorylase evaluated by radiochemical assay concentration <300 uM; format: tissue-based
T2 sequence (whole entry): T1 sequence (P00491 whole entry)

[3] = molecular target: T2, Purine nucleoside phosphorylase (Homo sapiens); experiment: Inhibitory activity against Purine nucleoside phosphorylase evaluated by radiochemical assay <300 uM; format: tissue-based; conditions: Urine
[4] = molecular target: T2, Purine nucleoside phosphorylase (Homo sapiens); experiment: Inhibitory activity against Purine nucleoside phosphorylase evaluated by radiochemical assay at <300 uM; format: tissue-based; conditions: Urine
[5] = molecular target: T2, Purine nucleoside phosphorylase (Homo sapiens); experiment: Inhibitory activity against Purine nucleoside phosphorylase evaluated by radiochemical assay; format: tissue-based; conditions: Urine; concentration not given here

Row | Structure (SMILES) | IC50 (MOLT-4) [µM] | IC50 [1] [µM] | further results
1 | Nc1nc(O)c2nc(N)n(Cc3cccs3)c2n1 | 0.82 | – | –
2 | Nc1nc(O)c2nc(NC=O)nc-2n1Cc1ccccc1 | – | > 150 | –
3 | N#Cc1ccc(Cn2cnc(O)c3ncnc2-3)cc1 | – | – | inhibition [2]: 22.2%
4 | Nc1nc2c(S)ncn(Cc3ccccc3)c-2n1 | – | 131 | –
5 | COc1ccc(Cn2c(N)nc(O)c3nc(N)nc2-3)cc1 | – | 8.9 | –
6 | Nc1nc2c(O)nc(N)n(Cc3ccco3)c-2n1 | 42.5 | 5.2 | –
7 | Nc1[nH]c[n+](Cc2ccccc2)c2ncnc1-2 | – | 95 | –
8 | O=c1[nH]c(=O)n(Cc2ccccc2)c2nc[nH]c12 | 28.6 | 13.4 | –
9 | Nc1nc(O)c2nc(N)n(Cc3ccccc3)c2n1 | 0.77 | 0.47 | –
10 | CSc1nc(O)c2ncnc-2n1Cc1ccccc1 | – | – | inhibition [2]: 23.3%
11 | Nc1nc(O)c2ncn(Cc3ccccc3)c2n1 | 35 | 29.6 | –
12 | Oc1ncn(Cc2ccccc2)c2ncnc1-2 | 204 | 112 | inhibition [3]: 81%
13 | CSc1nc(O)c2nc(N)nc-2n1Cc1ccccc1 | – | > 75 | –
14 | Oc1nc(S)n(CCc2ccccc2)c2ncnc1-2 | – | – | inhibition [4]: 10.9%
15 | O=[N+]([O-])c1ccc(Cn2cnc(O)c3ncnc2-3)cc1 | – | – | inhibition [2]: 13.1%
16 | Oc1ncn(CCc2ccccc2)c2ncnc1-2 | – | – | inhibition [2]: 26.8%
17 | Nc1nc2c(O)nc(N)n(Cc3cccs3)c-2n1 | > 25 | 4.6 | –
18 | Oc1nc(S)n(Cc2ccccc2)c2ncnc1-2 | – | – | inhibition [5]: 78.3%
19 | Oc1ncn(Cc2ccc(Cl)c(Cl)c2)c2ncnc1-2 | – | – | inhibition [2]: 36.9%
20 | Nc1nc(O)c2nc(N)n(Cc3ccco3)c2n1 | 1.47 | – | –
